Measurements as given in ChEMBL document CHEMBL5053554, “Identification of novel influenza polymerase PB2 inhibitors using virtual screening approach and molecular dynamics simulation analysis of active compounds” (Bioorg Med Chem, 2021).

Key:
[1] = molecular target: Polymerase basic protein 2 (Influenza A virus (strain A/Puerto Rico/8/1934 H1N1), UniProt P03428); test: Binding affinity to CM5 immobilized N-terminal His/Sumo tagged Influenza A virus (A/WSN/1933(H1N1)) PB2 CBD (318 to 486 residues) expressed in Escherichia coli by surface plasmon resonance assay
Sequence of Polymerase basic protein 2 (P03428 whole entry, the tested form may be a part): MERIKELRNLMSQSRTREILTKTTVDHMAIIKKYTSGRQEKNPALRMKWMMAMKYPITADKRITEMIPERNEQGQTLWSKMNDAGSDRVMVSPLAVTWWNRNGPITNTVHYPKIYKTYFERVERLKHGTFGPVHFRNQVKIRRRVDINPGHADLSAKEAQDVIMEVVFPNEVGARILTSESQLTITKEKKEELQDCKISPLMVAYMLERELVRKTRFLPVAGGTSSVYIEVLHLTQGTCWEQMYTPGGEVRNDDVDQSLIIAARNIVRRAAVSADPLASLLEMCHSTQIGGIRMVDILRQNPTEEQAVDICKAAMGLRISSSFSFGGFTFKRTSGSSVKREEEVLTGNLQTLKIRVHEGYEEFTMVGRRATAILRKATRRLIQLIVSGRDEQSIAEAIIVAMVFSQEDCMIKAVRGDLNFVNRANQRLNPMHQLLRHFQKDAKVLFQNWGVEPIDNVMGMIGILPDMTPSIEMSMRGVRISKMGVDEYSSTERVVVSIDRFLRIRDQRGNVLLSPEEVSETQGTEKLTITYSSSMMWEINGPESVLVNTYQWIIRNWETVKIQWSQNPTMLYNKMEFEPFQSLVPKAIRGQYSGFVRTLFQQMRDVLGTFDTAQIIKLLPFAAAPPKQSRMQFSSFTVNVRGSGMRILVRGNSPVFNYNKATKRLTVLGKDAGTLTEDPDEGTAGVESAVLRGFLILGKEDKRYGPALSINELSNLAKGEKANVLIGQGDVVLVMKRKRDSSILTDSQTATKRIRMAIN

[2] = Antiviral activity against Influenza A virus (A/Hong Kong/1-8/1968(H3N2)) infected in MDCK cells assessed as inhibition of virus-induced cytopathic effect measured after 72 hrs by CellTiter-Glo viability assay; assay type: functional, cell-based
[3] = Cytotoxicity against MDCK cells assessed as reduction in cell viability measured after 72 hrs by CCK8 analysis; assay type: cell-based, Canis lupus familiaris; conditions: dog
[4] = system: Influenza A virus (A/Puerto Rico/8/1934(H1N1)); test: Antiviral activity against Influenza A virus (A/Puerto Rico 8/1934 (H1N1)) infected in MDCK cells assessed as inhibition of virus-induced cytopathic effect measured after 72 hrs by CellTiter-Glo viability assay; assay type: functional, organism-based

SMILES | Kd [1] | EC50 [2] | CC50 at 72 h [3] | EC50 [4]
O=c1[nH]c2ccc(NCc3ccc(Cl)c(Cl)c3)cc2[nH]1 | 6.4 µM | 7.44 µM | > 100 µM | 21.7 µM
O=C(O)[C@H]1C2CCC(CC2)[C@@H]1Nc1nc(-c2c[nH]c3ncc(F)cc23)ncc1F [PIMODIVIR] | 0.054 µM | 1.84 µM | > 100 µM | < 0.005 µM
O=C(c1cc(=O)[nH]c2ccccc12)N1CCc2[nH]c3ccccc3c2C1 | 1.6 µM | 41.5 µM | > 100 µM | 42.8 µM
O=C(O)CSc1nc(-c2ccccc2)nc2c1oc1ccccc12 | 0.25 µM | 27 µM | > 100 µM | 22.4 µM
O=C(O)CSc1cc(O)c2c(c1O)C(=O)c1ccccc1C2=O | 0.58 µM | 7.55 µM | 49.7 µM | 5.81 µM
Cc1c(O[C@H](C(=O)O)c2ccccc2)ccc2c1oc(=O)c1ccccc12 | 0.11 µM | 15.1 µM | > 100 µM | 26.5 µM
CCC(CC)O[C@@H]1C=C(C(=O)O)C[C@H](N)[C@H]1NC(C)=O [OSELTAMIVIR CARBOXYLATE] | – | 0.03 µM | > 100 µM | 3.07 µM
O=C1c2ccccc2C(=O)c2cc(OC[C@H](O)Cn3cnc4ccccc43)ccc21 | 2.2 µM | 25.2 µM | > 100 µM | 33.2 µM
